Experimental data reported in US8686022B2, “7-(piperazine-1-ymethyl)-1H-indole-2-carboxylic acid (phenyl)-amide derivatives and allied compounds as p38 MAP kinase inhibitors for the treatment of respiratory diseases” (Boehringer Ingelheim International GmbH, priority 2008, dated 2014).
In brackets after ≈: the same amount, converted by molar mass.

Legend:
[1] = Determining the solubility (saturated solution in McIlvaine buffer pH 7.4, UV spectroscopy); type: physicochemical; conditions: pH 7.4, aqueous buffer, thermodynamic from solid, shaken 2 hours, 0.75 mg solid in 0.75 ml
Procedure, shortened: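 Excess solid (0.75 mg per 0.75 ml) shaken 2 h in McIlvaine buffer pH 7.4, then filtered through 0.45 μm PTFE membrane with first drops discarded. Dissolved amount measured by UV spectroscopy.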

p38 MAP-kinase = p38 MAP-kinase (Homo sapiens, UniProt Q16539); test: p38 MAP-kinase enzymatic assay (phosphorylation of GST-tagged ATF2, chemoluminescence); type: biochemical; conditions: inhibitor concentration 1 μM; activated p38 MAP-kinase 1 nM; ATP 100 μM; read-out: p38 (% Inh @ 1 μM)
Procedure, shortened: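 Activated p38 MAP-kinase (1 nM) preincubated 4 h at ambient temperature with 1 μM compound in HEPES pH 7, MgCl2, DTT, TWEEN20, then reacted 1 h with 10 nM GST-ATF2 and 100 μM ATP. Phospho-ATF2 detected by AlphaScreen-type bead luminescence; percent inhibition at 1 μM versus uninhibited and kinase-free controls.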

cytochrome P450 2C9 = cytochrome P450 2C9 (Homo sapiens, UniProt P11712); test: Determining the cyp2C9 activity (O-demethylation of [O-methyl-14C]-naproxen); type: in vitro ADME; conditions: human recombinant cytochrome P450 2C9; 37° C.; <0.4 μM when inhibition >50% at lowest concentration; read-out: CYP 2C9 IC50
Procedure, shortened: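 Recombinant CYP2C9 (40 pmol/ml) with 80 μM [O-methyl-14C]-naproxen in 0.1 M Tris, 5 mM MgCl2; test compound at 50, 10, 2 and 0.4 μM in duplicate. Started with 1 mM NADPH, stopped after 15 min with TCA; 14C-formaldehyde separated by solid-phase extraction and counted by scintillation. IC50 from least-squares fit.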

Chain of p38 MAP-kinase (Q16539 whole entry): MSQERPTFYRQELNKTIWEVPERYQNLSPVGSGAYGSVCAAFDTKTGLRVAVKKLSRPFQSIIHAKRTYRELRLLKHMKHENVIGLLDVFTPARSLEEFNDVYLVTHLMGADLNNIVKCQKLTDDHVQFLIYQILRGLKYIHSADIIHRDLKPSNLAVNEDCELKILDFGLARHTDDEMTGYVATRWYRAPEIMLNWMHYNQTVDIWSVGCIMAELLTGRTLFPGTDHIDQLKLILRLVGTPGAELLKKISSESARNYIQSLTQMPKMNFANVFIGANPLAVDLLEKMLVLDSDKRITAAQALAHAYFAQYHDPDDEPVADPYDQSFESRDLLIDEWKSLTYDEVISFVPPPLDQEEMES
Chain of cytochrome P450 2C9 (P11712 whole entry): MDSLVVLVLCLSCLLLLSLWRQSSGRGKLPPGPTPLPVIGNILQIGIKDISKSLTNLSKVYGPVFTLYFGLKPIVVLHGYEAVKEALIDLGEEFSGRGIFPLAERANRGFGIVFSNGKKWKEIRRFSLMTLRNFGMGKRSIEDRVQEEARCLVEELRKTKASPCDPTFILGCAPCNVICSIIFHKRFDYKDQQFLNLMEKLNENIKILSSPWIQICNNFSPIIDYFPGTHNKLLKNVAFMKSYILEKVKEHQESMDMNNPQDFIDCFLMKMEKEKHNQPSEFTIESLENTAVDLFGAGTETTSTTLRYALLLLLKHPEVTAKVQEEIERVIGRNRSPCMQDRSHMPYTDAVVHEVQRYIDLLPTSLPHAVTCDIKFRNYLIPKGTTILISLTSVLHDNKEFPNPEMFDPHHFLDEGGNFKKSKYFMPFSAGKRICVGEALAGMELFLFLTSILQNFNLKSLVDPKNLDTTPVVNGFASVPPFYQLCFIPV

solubility at 2 h [1]	inhibition at 1 µM (p38 MAP-kinase)	IC50 (cytochrome P450 2C9)	SMILES
> 1000 µg/mL	98.6%	3430 nM	COc1c(NC(=O)c2cc3cccc(CN4CCN(C(=O)CN5CCC(N(C)C)CC5)CC4)c3n2C)cc(C(C)(C)C)cc1NS(C)(=O)=O [Example 6, 7-{4-[2-(4-dimethylamino-piperidin-1-yl)-acetyl]-piperazin-1-ylmethyl}-1-methyl-1H-indole-2-carboxylic acid-(5-tert-butyl-3-methanesulphonylamino-2-methoxy-phenyl)-amide]
78 µg/mL (≈ 119 µM)	99.4%	440 nM	COc1c(NC(=O)c2cc3cccc(CN4CCN(C(=O)C5CCCN(C)C5)CC4)c3n2C)cc(C(C)(C)C)cc1NS(C)(=O)=O (stereo not drawn) [Example 4, 1-methyl-7-[4-(1-methyl-piperidine-3-carbonyl)-piperazin-1-ylmethyl]-1H-indole-2-carboxylic acid (5-tert-butyl-3-methanesulphonylamino-2-methoxy-phenyl)-amide]
620 µg/mL (≈ 971 µM)	98.6%	1150 nM	COc1c(NC(=O)c2cc3cccc(CN4CCN(C(=O)[C@H]5CCN(C)C5)CC4)c3n2C)cc(C(C)(C)C)cc1NS(C)(=O)=O [Example 5, (S)-1-methyl-7-[4-(1-methyl-pyrrolidine-3-carbonyl)-piperazin-1-ylmethyl]-1H-indole-2-carboxylic acid (5-tert-butyl-3-methanesulphonylamino-2-methoxy-phenyl)-amide]
10 µg/mL (≈ 15 µM)	99.1%	1290 nM	COc1c(NC(=O)c2cc3cccc(CN4CCN(C(=O)N5CC[C@@H](N(C)C)C5)CC4)c3n2C)cc(C(C)(C)C)cc1NS(C)(=O)=O [Example 2, (R)-7-[4-(3-dimethylamino-pyrrolidine-1-carbonyl)-piperazin-1-ylmethyl]-1-methyl-1H-indole-2-carboxylic acid(5-tert-butyl-3-methanesulohonylamino-2-methoxy-phenyl)-amide]
> 1000 µg/mL	98.8%	11000 nM	COc1c(CN2CCN(C)CC2)cc(C(C)(C)C)cc1NC(=O)c1cc2cccc(CN3CCN(C(=O)[C@@H]4CCCN4C)CC3)c2n1C [Example 9, (S)-1-methyl-7-[4-(1-methyl-pyrrolidine-2-carbonyl)-piperazin-1-ylmethyl]-1H-indole-2-carboxylic acid-[5-tert-butyl-2-methoxy-3-(4-methyl-piperazin-1-ylmethyl)-phenyl]-amide]

The remaining lines, values behind:

SMILES	solubility at 2 h [1]	inhibition at 1 µM (p38 MAP-kinase)	IC50 (cytochrome P450 2C9)
COc1c(NC(=O)c2cc3cccc(CN4CCN(C(=O)C(C)N5CCCC5)CC4)c3n2C)cc(C(C)(C)C)cc1NS(C)(=O)=O (stereo not drawn) [1(13), 1-methyl-7-[4-(2-pyrrolidin-1-yl-propionyl)-piperazin-1-ylmethyl]-1H-indole-2-carboxylic acid-(5-tert-butyl-3-methanesulphonylamino-2-methoxy-phenyl)-amide]	40 µg/mL (≈ 61.3 µM)	98.7%	560 nM
COc1c(NC(=O)c2cc3cccc(CN4CCCN(C(=O)C5CCN(C)CC5)CC4)c3n2C)cc(C(C)(C)C)cc1NS(C)(=O)=O [8(1), 1-methyl-7-[4-(1-methyl-piperidine-4-carbonyl)-[1,4]diazepan-1-ylmethyl]-1H-indole-2-carboxylic acid-(5-tert-butyl-3-methanesulphonylamino-2-methoxy-phenyl)-amide]	120 µg/mL (≈ 180 µM)	98.1%	6480 nM
CCN(CC)C1CCN(Cc2cc(C(C)(C)C)cc(NC(=O)c3cc4cccc(CN5CCN(C(=O)[C@@H]6CCCN6C)CC5)c4n3C)c2OC)CC1 [9(6), (S)-1-methyl-7-[4-(1-methyl-pyrrolidine-2-carbonyl)-piperazin-1-ylmethyl]-1H-indole-2-carboxylic acid-[5-tert-butyl-3-(4-diethylamino-piperidin-1-ylmethyl)-2-methoxy-phenyl]-amide]	470 µg/mL (≈ 658 µM)	97.7%	10400 nM
COc1c(CN(C(C)C)C(C)C)cc(C(C)(C)C)cc1NC(=O)c1cc2cccc(CN3CCN(C(=O)[C@@H]4CCCN4C)CC3)c2n1C [9(1), (S)-1-methyl-7-[4-(1-methyl-pyrrolidine-2-carbonyl)-piperazin-1-ylmethyl]-1H-indole-2-carboxylic acid-{5-tert-butyl-3-[(diisopropylamino)-methyl]-2-methoxy-phenyl}-amide]	570 µg/mL (≈ 865 µM)	95.8%	6700 nM
COc1c(NC(=O)c2cc3cccc(CN4CCN(C(=O)[C@H]5C[C@@H](OC)CN5C)CC4)c3n2C)cc(C(C)(C)C)cc1NS(C)(=O)=O [1(9), 7-[4-((2R,4R)-4-methoxy-1-methyl-pyrrolidine-2-carbonyl)-piperazin-1-ylmethyl]-1-methyl-1H-indole-2-carboxylic acid(5-tert-butyl-3-methanesulphonylamino-2-methoxy-phenyl)-amide]	440 µg/mL (≈ 658 µM)	98.9%	1120 nM
COc1c(NC(=O)c2cc3cccc(CN4CCN(C(=O)[C@@H]5CCCN5C)CC4)c3n2C)cc(C(C)(C)C)cc1NC(=O)C(C)C [12(3), (S)-1-methyl-7-[4-(1-methyl-pyrrolidine-2-carbonyl)-piperazin-1-ylmethyl]-1H-indole-2-carboxylic acid-(5-tert-butyl-3-isobutyrylamino-2-methoxy-phenyl)-amide]	91 µg/mL (≈ 144 µM)	97.3%	2150 nM
COc1c(NC(=O)c2cc3cccc(CN4CCN(C(=O)CN5CC[C@@H](O)C5)CC4)c3n2C)cc(C(C)(C)C)cc1NS(C)(=O)=O [6(1), (R)-7-{4-[2-(3-hydroxy-pyrrolidin-1-yl)-acetyl]-piperazin-1-ylmethyl}-1-methyl-1H-indole-2-carboxylic acid-(5-tert-butyl-3-methanesulphonylamino-2-methoxy-phenyl)-amide]	47 µg/mL (≈ 71.8 µM)	99.2%	470 nM
COc1c(NC(=O)c2cc3cccc(CN4CCN(C(=O)[C@@H]5C[C@H](O)CN5C)CC4)c3n2C)cc(C(C)(C)C)cc1NS(C)(=O)=O [1(12), 7-[4-((2S,4S)-4-hydroxy-1-methyl-pyrrolidine-2-carbonyl)-piperazin-1-ylmethyl]-1-methyl-1H-indole-2-carboxylic acid(5-tert-butyl-3-methanesulphonylamino-2-methoxy-phenyl)-amide]	140 µg/mL (≈ 214 µM)	98.9%	1550 nM
